Assay results: patent publication US6649402B2, “Microfabricated microbial growth assay method and apparatus” (Wisconsin Alumni Research Foundation, priority 2001, dated 2003)

System: E. coli K-12 MG 1655
Experiment: microbial growth assay by impedance (capacitance and resistance) measurement in 30 μl wells
Type: cell-based
Conditions: 37° C.
Experimental: As an example of the utilization of the apparatus 20 of FIGS. 1 and 2, a single colony of E. coli K-12 MG 1655 was used to inoculate five ml of Luria Broth (LB) which was grown overnight at 37° C. with constant aeration. A 1% inoculum was used to subculture in fresh LB medium and grew to OD600 of 0.5 (measured by a Beckman DU-20 spectrophotometer). 15 μl of cell culture was mixed with 15 μl of LB medium in samples with and without ampicillin (100 μg/ml), and aliquoted into the wells 22. In addition, an equal volume of LB medium (30 μl) with ampicillin was aliquoted into an additional well to function as a negative control.
The switch/control unit 34 was used to switch the connection of the LCR meter 36 to the conductors 30 and 31 leading to the electrodes of the wells 22 in sequence. A 10 mV rms alternating current signal of varying frequency (between 75 kHz and 30 MHz) was used for electrical excitation and was applied between the electrodes 24 and 25. […] At each frequency, impedance (capacitance and resistance) was measured between the electrodes 24 and 25 for each of the four wells. […] The values of the impedance (assuming a parallel RC equivalent circuit model, resistance and capacitance, R and C) between the electrodes 24 and 25 at each of the cells was recorded periodically over about 16 hours under the control of the computer 41. […]

SMILES: CC1(C)S[C@@H]2[C@H](NC(=O)[C@H](N)c3ccccc3)C(=O)N2[C@H]1C(=O)O [ampicillin]
- capacitance (and resistance) between the electrodes at a well containing bacteria over time (ampicillin 100 μg/ml in LB medium, measured at 75 kHz and 400 kHz, about 16 hours, relative to control well without bacteria, without ampicillin capacitance increases exponentially): remains constant
- time within which the antibacterial effect can be detected (ampicillin 100 μg/ml, E. coli in LB medium, impedance readout): less than one hour
